These results are taken from patent US20250382301A1 (Arizona Board of Regents on Behalf of the University of …, priority 2022, published 2025).

A word on the EC50: it is the midpoint of the concentration-response curve.

The test system of the experiment is WNT signaling (TopGFP reporter in Human Colonic Epithelial Cells (HCEC)). The experiment can be described thus: WNT Reporter Assay (TopGFP reporter). It is filed as cell-based. Particulars: Homo sapiens, stimulated with 10 μM CHIR99021, 24 hours, TopGFP/mCherry.
Method: WNT Reporter Assay: Human Colonic Epithelial Cells (HCEC) were cultured using 1×DMEM supplemented with 1% penicillin/streptomycin, 1% Glutamax, and 10% fetal bovine serum in 5% CO2 at 37° C. These cells were previously engineered to express the TopGFP reporter (Addgene #24304) using second generation lentiviral techniques. For the Wnt reporter assay, cells were seeded at 2000 cells per well in a 384-well black screenstar imaging microplates (Greiner #781866) and allowed to adhere overnight. The following day cells were stimulated to induce the Wnt pathway using 10 μM CHIR99021 (Selleck #S1263). […] Cells were incubated for 24 hours before fixing for 30 minutes with 4% paraformaldehyde/sucrose solution. Cells were permeabilized with 0.1% triton-x in PBS for 10 minutes and stained for DAPI for 30 minutes. Plates were imaged on a Nikon Ti2 Eclipse fluorescent microscope for DAPI, GFP, and mCherry. Using Nikon Elements software for analysis, nuclei were segmented based on DAPI and mean object intensity per cell for both TopGFP and the internal control (mCherry) was measured. To calculate the amount of Wnt activity, we took the mean intensity of TopGFP and divided it by the mean intensity of mCherry per cell to normalize individual cells. Curves and EC50s were plotted and calculated using Graphpad Prism software.
Compound `C[C@@H]1CN(c2ccccn2)CCN1c1ncnc2ccc(-c3ccnc(N)c3)cc12` [Compound 44, (R)-4-(4-(2-methyl-4-(pyridin-2-yl)piperazin-1-yl)quinazolin-6-yl)pyridin-2-amine] had an EC50 of 100 to 1000 nM.

For the compound `C[C@H]1CN(c2ccccn2)CCN1c1ncnc2ccc(-c3ccnc(N)c3)cc12` [Compound 45, (S)-4-(4-(2-methyl-4-(pyridin-2-yl)piperazin-1-yl)quinazolin-6-yl)pyridin-2-amine], the EC50 is below 100 nM.

`Nc1cc(-c2ccc3ncnc(N4CCN(C(=O)c5ccccc5F)CC4)c3c2)ccn1` [Compound 46, (4-(6-(2-aminopyridin-4-yl)quinazolin-4-yl)piperazin-1-yl)(2-fluorophenyl)methanone] returned an EC50 above 1000 nM.

`COc1cc2c(cc1OC)CN(c1ncnc3ccc(-c4cnn(C)c4)cc13)CC2` [Compound 47, 4-(6,7-dimethoxy-3,4-dihydroisoquinolin-2(1H)-yl)-6-(1-methyl-1H-pyrazol-4-yl)quinazoline]: the EC50 was above 1000 nM.

On to `Nc1cc(-c2ccc3ncnc(N4CCC(c5ccccc5F)CC4)c3c2)ccn1` [Compound 48, 4-(4-(4-(2-fluorophenyl)piperidin-1-yl)quinazolin-6-yl)pyridin-2-amine], for which the EC50 lay within 100 to 1000 nM.

Turning to `Fc1ccc(CN2CCN(c3ncnc4ccc(-c5c[nH]c6ncccc56)cc34)CC2)cc1` [Compound 49, 4-(4-(4-fluorobenzyl)piperazin-1-yl)-6-(1H-pyrrolo[2,3-b]pyridin-3-yl)quinazoline], the EC50 is below 100 nM.

`Nc1cc(-c2ccc3ncnc(N4CCN(c5nccs5)CC4)c3c2)ccn1` [Compound 50, 4-(4-(4-(thiazol-2-yl)piperazin-1-yl)quinazolin-6-yl)pyridin-2-amine] had an EC50 below 100 nM.

In turn, `Nc1cc(-c2ccc3ncnc(N4CCC(c5ccccc5)CC4)c3c2)ccn1` [Compound 51, 4-(4-(4-phenylpiperidin-1-yl)quinazolin-6-yl)pyridin-2-amine] gave an EC50 of 100 to 1000 nM.

For `Nc1cc(-c2ccc3nccc(N4CCN(c5ccccc5F)CC4)c3n2)ccn1` [Compound 52, 4-(8-(4-(2-fluorophenyl)piperazin-1-yl)-1,5-naphthyridin-2-yl)pyridin-2-amine], the EC50 is below 100 nM.

Regarding `Nc1cc(-c2ccc3nccc(N4CCN(c5ccccc5)CC4)c3n2)ccn1` [Compound 53, 4-(8-(4-phenylpiperazin-1-yl)-1,5-naphthyridin-2-yl)pyridin-2-amine], the EC50 is below 100 nM.

Take `Nc1cc(-c2ccc3ncnc(N4[C@@H]5CC[C@H]4CN(c4ccccn4)C5)c3c2)ccn1` [Compound 54, 4-(4-((1R,5S)-3-(pyridin-2-yl)-3,8-diazabicyclo[3.2.1]octan-8-yl)quinazolin-6-yl)pyridin-2-amine]: the EC50 is 100 to 1000 nM.

`Nc1cc(-c2ccc3ncnc(N4C[C@H]5C[C@@H]4CN5c4ccccn4)c3c2)ccn1` [Compound 55, 4-(4-((1R,4R)-5-(pyridin-2-yl)-2,5-diazabicyclo[2.2.1]heptan-2-yl)quinazolin-6-yl)pyridin-2-amine] showed an EC50 above 1000 nM.

For `Nc1cc(-c2ccc3ncnc(N4CCCN(c5ccccn5)CC4)c3c2)ccn1` [Compound 56, 4-(4-(4-(pyridin-2-yl)-1,4-diazepan-1-yl)quinazolin-6-yl)pyridin-2-amine], the EC50 was above 1000 nM.

`Fc1cccnc1N1CCN(c2ncnc3ccc(-c4c[nH]c5ncccc45)cc23)CC1` [Compound 57, 4-(4-(3-fluoropyridin-2-yl)piperazin-1-yl)-6-(1H-pyrrolo[2,3-b]pyridin-3-yl)quinazoline] yielded an EC50 below 100 nM.

With `O=c1ccccn1C1CCN(c2ncnc3ccc(-c4c[nH]c5ncccc45)cc23)CC1` [Compound 58, 1-(1-(6-(1H-pyrrolo[2,3-b]pyridin-3-yl)quinazolin-4-yl)piperidin-4-yl)pyridin-2(1H)-one], the EC50 was below 100 nM.

In turn, `O=c1ccccn1C1CCN(c2ncnc3ccc(-c4cn[nH]c4)cc23)CC1` [Compound 59, 1-(1-(6-(1H-pyrazol-4-yl)quinazolin-4-yl)piperidin-4-yl)pyridin-2(1H)-one] came in with an EC50 below 100 nM.

`Cc1n[nH]cc1-c1ccc2ncnc(N3CCN(c4ccccn4)CC3)c2c1` [Compound 60, 6-(3-methyl-1H-pyrazol-4-yl)-4-(4-(pyridin-2-yl)piperazin-1-yl)quinazoline] showed an EC50 above 1000 nM.

With `Nc1cc(-c2ccc3ncnc(N4CCN(c5ncccc5F)CC4)c3c2)ccn1` [Compound 61, 4-(4-(4-(3-fluoropyridin-2-yl)piperazin-1-yl)quinazolin-6-yl)pyridin-2-amine], the EC50 was below 100 nM.

On to `Nc1cc(-c2ccc3ncnc(N4CCC(n5ccccc5=O)CC4)c3c2)ccn1` [Compound 62, 1-(1-(6-(2-aminopyridin-4-yl)quinazolin-4-yl)piperidin-4-yl)pyridin-2(1H)-one], for which the EC50 lay in the range of 100 to 1000 nM.

As to `Nc1cc(-c2ccc3ncnc(N4CCC(c5ccc(F)cc5F)CC4)c3c2)ccn1` [Compound 63, 4-(4-(4-(2,4-difluorophenyl)piperidin-1-yl)quinazolin-6-yl)pyridin-2-amine], the EC50 lay in the range of 100 to 1000 nM.

The compound `Nc1cc(-c2ccc3ncnc(N4CCC5(CCN(c6ccccn6)CC5)C4)c3c2)ccn1` [Compound 64, 4-(4-(8-(pyridin-2-yl)-2,8-diazaspiro[4.5]decan-2-yl)quinazolin-6-yl)pyridin-2-amine] showed an EC50 of 100 to 1000 nM.

Compound `Nc1cc(-c2ccc3ncnc(N4CCC5(CCN(c6ccccn6)C5)CC4)c3c2)ccn1` [Compound 65, 4-(4-(2-(pyridin-2-yl)-2,8-diazaspiro[4.5]decan-8-yl)quinazolin-6-yl)pyridin-2-amine] yielded a half-maximal effective concentration (EC50) below 100 nM.

The compound `Nc1cc(-c2ccc3ncnc(N4C[C@H]5CN(c6ccccn6)C[C@H]5C4)c3c2)ccn1` [Compound 66, 4-(4-((3aR,6aS)-5-(pyridin-2-yl)hexahydropyrrolo[3,4-c]pyrrol-2(1H)-yl)quinazolin-6-yl)pyridin-2-amine] gave an EC50 of 100 to 1000 nM.

On to `Nc1cc(-c2ccc3ncnc(N4CCN(c5ccccc5F)C(=O)C4)c3n2)ccn1` [Compound 67, 4-(6-(2-aminopyridin-4-yl)pyrido[3,2-d]pyrimidin-4-yl)-1-(2-fluorophenyl)piperazin-2-one], for which the EC50 was below 100 nM.
